Patent US5663201A, “Desferrioxamine-B salts” (CIBA-GEIGY Corporation, priority 1992, dated 1997)
Counter-ions that a name gives are not always drawn. Like-named read-outs stand apart in the source and are kept apart here. Values belong to the compound of their own block, whether it stands above or below them.

Tests used:
[1] = type: physicochemical; conditions: n-octanol/phosphate buffer, pH 7.4
Experimental: (§1) The partition coefficients of the salts prepared in Examples 1 to 5 between n-octanol and water are determined by the `shake-flask` method of Leo et at, Chem. Rev., 71(6), 525 (1971).
(§2) The n-octanol and aqueous phases are mutually saturated prior to conducting the experiment. The desferrioxamine-B sulphonic acid addition salt is dissolved in the aqueous phase at a concentration of 0.005 mol/l and the partition experiment is performed by shaking the vessel containing the two phases until an equilibrium has been achieved. […] After equilibrium has been achieved, the sample is centrifuged to enable phase separation. Both organic and aqueous phases are analysed for desferrioxamine-B content via extraction of an appropriate aliquot, quenching with an aqueous (for assay of the aqueous phase) or methanolic (for assay of the n-octanol phase) solution of FeCl3, and measurement of the absorption of the characteristic ferrioxamine-B chelate at ca. 450 nm. Respective calibration plots (absorbance vs. concentration of desferrioxamine-B sulphonic acid salt) for the assay of both aqueous and organic phases show a linear response over the concentration range studied. The results obtained are as follows:
The partition coefficients of the salts prepared in Examples 1 to 5 between n-octanol and an aqueous phosphate buffer at pH7.4 having an ionic strength of 0.31 mol/l are determined using the procedure of Examples 6-10. The results obtained are as follows:
The use of n-octanol/aqueous media partition coefficients as a model for the lipophilicity of drugs is well established (see the abovementioned Leo et al reference). The aqueous phase in Examples 11 to 15 simulates physiological conditions.

[2] = type: physicochemical; conditions: n-octanol/water, 5000 µM
Experimental: as §1
as §2, with “follows: […]” for “follows:”

[3] = test system: Daudi cell line (B-cell lymphoma); test: iron-chelation bioassay: growth inhibiting effect on cells through iron removal, [3H] Thymidine uptake; type: cell-based; conditions: 72 hours, Control (0 μM): Ex 18 22297, Ex 19 23897, listed as octanesulphonate
Experimental: The iron-chelating properties of salts of the invention in a biological system are determined by means of a bioassay in which the growth inhibiting effect of the salts on cells through iron removal is measured by the uptake of radioactively labelled thymidine into the cells. The bioassay is carried out using a Daudi cell line (B-cell lymphoma), a Roswell Park Memorial Institute (RPMI) 1640 medium containing 1 µM ferric citrate and supplements as low iron washing medium and RPM11640 together with 5% by weight of foetal calf serum as passaging medium.
The cells are fed 24 hours before use. They are washed twice in the low iron washing medium to remove any excess iron and diluted with this medium to a concentration of 0.2×10^6 cells/0.180 ml. To 0.180 ml aliquots are added 0.02 ml of solutions of the desferrioxamine-B salts under test in phosphate-buffered saline (PBS) to give concentrations ranging from a Control containing no salt to a […] solution. The cells are then incubated at 37° C. in an atmosphere containing 5% by volume of carbon dioxide for 72 hours, being pulsed for the last 8 hours of that time with labelled [^3 H] Thymidine at 5 micro Ci/ml. The resulting cells are harvested and their radioactive disintegrations are counted for 10 minutes. The results are shown in the table below as the average of 4 separate experiments (except the Control result in Example 18 which is the average of 3 separate experiments).

[4] = intrinsic dissolution of tablets, Langenbucher flow-through apparatus; type: physicochemical; conditions: water, 25° C.
Experimental: Tablets are prepared from the salts of Examples 1 and 4 by compressing a mixture of 99 parts of the salt and 1 part of magnesium stearate in a 13mm die for 2 minutes under a pressure of 4×10^5 kPa. The intrinsic dissolution rates of the tablets are determined using a Langenbucher flow-through apparatus, with water at 25° C. as the dissolution medium. The amount of desferrioxamine-B dissolved in the medium is measured at intervals using a spectrophotometric assay at 215 nm.

Partition Coefficient [1]: 0.028
Partition Coefficient [2]: 0.450
SMILES: CC(=O)N(O)CCCCCNC(=O)CCC(=O)N(O)CCCCCNC(=O)CCC(=O)N(O)CCCCCN [Example 5, dodecane-1-sulphonate salt of desferrioxamine-B]

Partition Coefficient [1]: 0.010
Partition Coefficient [2]: 0.020
SMILES: CC(=O)N(O)CCCCCNC(=O)CCC(=O)N(O)CCCCCNC(=O)CCC(=O)N(O)CCCCCN [Example 3, hexane-1-sulphonate salt of desferrioxamine-B]

Partition Coefficient [1]: 0.006
Partition Coefficient [2]: 0.008
SMILES: CC(=O)N(O)CCCCCNC(=O)CCC(=O)N(O)CCCCCNC(=O)CCC(=O)N(O)CCCCCN [Example 2, butane-1-sulphonate salt of desferrioxamine-B]

Partition Coefficient [1]: 0.047
% Desferrioxaine-B salt dissolved ([4]; 1 min, listed as octanesulphonate): 1.71%
% Desferrioxaine-B salt dissolved ([4]; 2 min, listed as octanesulphonate): 3.07%
% Desferrioxaine-B salt dissolved ([4]; 5 min, listed as octanesulphonate): 6.88%
% Desferrioxaine-B salt dissolved ([4]; 10 min, listed as octanesulphonate): 10.56%
% Desferrioxaine-B salt dissolved ([4]; 15 min, listed as octanesulphonate): 14.22%
% Desferrioxaine-B salt dissolved ([4]; 20 min, listed as octanesulphonate): 17.94%
% Desferrioxaine-B salt dissolved ([4]; 30 min, listed as octanesulphonate): 24.73%
% Desferrioxaine-B salt dissolved ([4]; 50 min, listed as octanesulphonate): 37.09%
% Desferrioxaine-B salt dissolved ([4]; 75 min, listed as octanesulphonate): 48.75%
% Desferrioxaine-B salt dissolved ([4]; 100 min, listed as octanesulphonate): 58.34%
% Desferrioxaine-B salt dissolved ([4]; 125 min, listed as octanesulphonate): 66.38%
% Desferrioxaine-B salt dissolved ([4]; 150 min): 72.38%
% Desferrioxaine-B salt dissolved ([4]; 175 min, listed as octanesulphonate): 79.13%
% Desferrioxaine-B salt dissolved ([4]; 200 min, listed as octanesulphonate): 84.91%
% Desferrioxaine-B salt dissolved ([4]; 225 min, listed as octanesulphonate): 89.25%
% Desferrioxaine-B salt dissolved ([4]; 250 min, listed as octanesulphonate): 92.50%
% Desferrioxaine-B salt dissolved ([4]; 275 min, listed as octanesulphonate): 94.91%
% Desferrioxaine-B salt dissolved ([4]; 300 min, listed as octanesulphonate): 96.34%
intrinsic rate of release into the aqueous dissolution medium ([4]; in words): slow
Partition Coefficient [2]: 0.121
SMILES: CC(=O)N(O)CCCCCNC(=O)CCC(=O)N(O)CCCCCNC(=O)CCC(=O)N(O)CCCCCN [Example 4, octane-1-sulphonate salt of desferrioxamine-B]
Disintegrations Per Minute ([3H] Thymidine uptake) ([3]; 0.5 μM salt): 21830 Disintegrations Per Minute
Disintegrations Per Minute ([3H] Thymidine uptake) ([3]; 1 μM salt): 14765 Disintegrations Per Minute
Disintegrations Per Minute ([3H] Thymidine uptake) ([3]; 2 μM salt): 7651 Disintegrations Per Minute
Disintegrations Per Minute ([3H] Thymidine uptake) ([3]; 3 μM salt): 7109 Disintegrations Per Minute
Disintegrations Per Minute ([3H] Thymidine uptake) ([3]; 4 μM salt): 6280 Disintegrations Per Minute
Disintegrations Per Minute ([3H] Thymidine uptake) ([3]; 5 μM salt): 5373 Disintegrations Per Minute
Disintegrations Per Minute ([3H] Thymidine uptake) ([3]; 6 μM salt): 4122 Disintegrations Per Minute
Disintegrations Per Minute ([3H] Thymidine uptake) ([3]; 7.5 μM salt): 3716 Disintegrations Per Minute
Disintegrations Per Minute ([3H] Thymidine uptake) ([3]; 10 μM salt): 2292 Disintegrations Per Minute
Disintegrations Per Minute ([3H] Thymidine uptake) ([3]; 15 μM salt): 1065 Disintegrations Per Minute
Disintegrations Per Minute ([3H] Thymidine uptake) ([3]; 20 μM salt): 482 Disintegrations Per Minute
